Assay results as given in the supplement of paper PMC7108870.

What was measured:
[1] = system: HEK293sieSTAT3(wt); test: drug sensitivity score (DSS), viability CellTiter-Glo (DSS (dimensionless)); higher = more growth inhibition; extreme values may be limits of the assay; settings: 72 h; STAT3 variant: wild type
Summary of the method: (§1)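 Compounds were acoustically pre-plated in 384-well plates at 5 concentrations spaced by 10-fold dilutions, and HEK293 cells overexpressing wild-type or mutant STAT3 and carrying a STAT3-dependent luciferase reporter were added at 100,000 cells/ml in 20 μl. After 72 hours at 37°C and 5% CO2, the plates were read on a PHERAstar FS for CellTox Green fluorescence (485/520 nm) and then CellTiter-Glo luminescence. A drug sensitivity score derived from dose-response curve area was calculated in Breeze from values normalised to negative and positive control wells.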

[2] = system: HEK293sieSTAT3(Y640F); test: as above; settings: 72 h; STAT3 variant: Y640F (constitutively active)
Summary of the method: as §1

[3] = system: HEK293sieSTAT3(wt); test: drug sensitivity score (DSS), cytotoxicity CellTox Green (DSS (dimensionless)); higher = more cytotoxic; extreme values may be limits of the assay; settings: 72 h; STAT3 variant: wild type
Summary of the method: as §1

[4] = system: HEK293sieSTAT3(Y640F); test: as above; settings: 72 h; STAT3 variant: Y640F (constitutively active)
Summary of the method: as §1

Structure (SMILES) | drug sensitivity score [1] | drug sensitivity score [2] | drug sensitivity score [3] | drug sensitivity score [4]
COc1cc([C@@H]2c3cc4c(cc3[C@@H](O[C@@H]3O[C@@H]5CO[C@@H](c6cccs6)O[C@H]5[C@H](O)[C@H]3O)[C@H]3COC(=O)[C@H]23)OCO4)cc(OC)c1O [Teniposide] (top concentration tested 10000 nM) | 29.6 | 29 | 8.89 | 2.03
COc1ccc(S(=O)(=O)Nc2cccnc2Nc2ccc(O)cc2)cc1 [ABT-751] (top concentration tested 10000 nM) | 14.3 | 11.4 | 9.49 | 2.68
COc1cc(O)c2c(c1)/C=C/C[C@H](O)[C@H](O)C(=O)/C=C\C[C@H](C)OC2=O [(5Z)-7-Oxozeaenol] (top concentration tested 10000 nM) | 4.51 | 3.74 | 6.67 | 2.58
CO[C@H]1C[C@@H]2CC[C@@H](C)[C@@](O)(O2)C(=O)C(=O)N2CCCC[C@H]2C(=O)O[C@H]([C@H](C)C[C@@H]2CC[C@@H](O)[C@H](OC)C2)CC(=O)[C@H](C)/C=C(\C)[C@@H](O)[C@@H](OC)C(=O)[C@H](C)C[C@H](C)/C=C/C=C/C=C/1C [Sirolimus] (top concentration tested 100 nM) | 9.09 | 7 | 0 | 0
CS(=O)(=O)c1ccc(-c2cnc(N)c(C(=O)Nc3ccccc3)n2)cc1 [VE-821] (top concentration tested 10000 nM) | 2.94 | 2.27 | 0 | 0
CCOc1cc2ncc(C#N)c(Nc3ccc(OCc4ccccn4)c(Cl)c3)c2cc1NC(=O)/C=C/CN(C)C [Neratinib] (top concentration tested 1000 nM) | 1.99 | 3.35 | 0 | 0
C[C@@H]1CCN(C(=O)CC#N)C[C@@H]1N(C)c1ncnc2[nH]ccc12 [Tofacitinib] (top concentration tested 5000 nM) | 0 | 0.07 | 0 | 0
C/C=C1\NC(=O)[C@H]2CSSCC/C=C/[C@H](CC(=O)N[C@H](C(C)C)C(=O)N2)OC(=O)[C@H](C(C)C)NC1=O [Romidepsin] (top concentration tested 1000 nM) | 29.5 | 32.4 | 29.9 | 23.6
CCCCCCCCc1ccc(CCC(N)(CO)CO)cc1 [Fingolimod] (top concentration tested 10000 nM) | 8.27 | 6.17 | 7.2 | 5.85
S=C(NCc1ccc2c(c1)OCO2)N1CCN(c2ncnc3c2oc2ccccc23)CC1 [Amuvatinib] (top concentration tested 10000 nM) | 5.71 | 5.74 | 8.39 | 3.08
CCOc1cc2ncc(C#N)c(Nc3ccc(F)c(Cl)c3)c2cc1NC(=O)/C=C/CN(C)C [Pelitinib] (top concentration tested 2500 nM) | 9.21 | 6.05 | 3.88 | 1.79
CC(C)c1c(C(=O)Nc2ccccc2)c(-c2ccccc2)c(-c2ccc(F)cc2)n1CC[C@@H](O)C[C@@H](O)CC(=O)O [Atorvastatin] (top concentration tested 10000 nM) | 8.29 | 6.61 | 6.93 | 9.06
CC(C)c1cc(C(=O)N2Cc3ccc(CN4CCN(C)CC4)cc3C2)c(O)cc1O [Onalespib] (top concentration tested 2500 nM) | 24.5 | 20.9 | 18.9 | 7.91
CO[C@H](C(=O)[C@@H](O)[C@@H](C)O)[C@@H]1Cc2cc3cc(O[C@H]4C[C@@H](O[C@@H]5C[C@@H](O)[C@H](O)[C@@H](C)O5)[C@H](O)[C@@H](C)O4)c(C)c(O)c3c(O)c2C(=O)[C@H]1O[C@H]1C[C@@H](O[C@@H]2C[C@@H](O)[C@@H](O[C@@H]3C[C@](C)(O)[C@H](O)[C@@H](C)O3)[C@@H](C)O2)[C@H](O)[C@@H](C)O1 [Plicamycin] (top concentration tested 10000 nM) | 18.7 | 17.8 | 7.29 | 6.46
CN[C@@H](C)C(=O)N[C@H](C(=O)N1CCC[C@H]1c1nc(C(=O)c2ccc(F)cc2)cs1)C1CCCCC1 [LCL161] (top concentration tested 25000 nM) | 24.6 | 13.7 | 45 | 26.6
Cn1ncnc1[C@H]1c2n[nH]c(=O)c3cc(F)cc(c23)N[C@@H]1c1ccc(F)cc1 [Talazoparib] (top concentration tested 1000 nM) | 16 | 15.9 | 5.13 | 1.02
CN(c1ccccc1CNc1nc(Nc2ccc3c(c2)CC(=O)N3)ncc1C(F)(F)F)S(C)(=O)=O (top concentration tested 10000 nM) | 11.2 | 10.1 | 6.16 | 1.46
Cn1cc(C2=C(c3cn(C4CCN(Cc5ccccn5)CC4)c4ccccc34)C(=O)NC2=O)c2ccccc21 [Enzastaurin] (top concentration tested 10000 nM) | 1.34 | 1.73 | 0 | 0
CS(=O)(=O)c1ccc(C(=O)Nc2ccc(Cl)c(-c3ccccn3)c2)c(Cl)c1 [Vismodegib] (top concentration tested 10000 nM) | 0.09 | 0.91 | 0.14 | 0
C#Cc1cccc(Nc2ncnc3cc(OCCOC)c(OCCOC)cc23)c1 [Erlotinib] (top concentration tested 10000 nM) | 2.99 | 3.21 | 0 | 0
O=C(/C=C/c1cccnc1)NCCCCC1CCN(C(=O)c2ccccc2)CC1 [Daporinad] (top concentration tested 1000 nM) | 32.8 | 32.8 | 0 | 3.19

Structure (SMILES) | drug sensitivity score [1] | drug sensitivity score [2] | drug sensitivity score [3] | drug sensitivity score [4]
Cn1ncc(Cl)c1-c1cc(C(=O)N[C@H](CN)Cc2cccc(F)c2)sc1Cl [Afuresertib] (top concentration tested 1000 nM) | 9.38 | 6.74 | 0 | 0
CC(C)Oc1cc(Nc2nc(N[C@@H](C)c3ccc(F)cn3)ncc2Cl)n[nH]1 [AZ-23] (top concentration tested 1000 nM) | 6.5 | 3.11 | 1.27 | 0
N[C@@H](Cc1ccc(N(CCCl)CCCl)cc1)C(=O)O [Melphalan] (top concentration tested 12500 nM) | 0 | 1.69 | 0 | 0
CN(C)CCN1C(=O)c2cccc3cc(N)cc(c23)C1=O [Amonafide] (top concentration tested 10000 nM) | 15 | 11.3 | 7.09 | 1.87
O=C(O)CCCCC(CCSCc1ccccc1)SCc1ccccc1 (stereo not drawn) [CPI-613] (top concentration tested 10000 nM) | 2.62 | 0.32 | 0.8 | 0
NC(=O)c1ccc(I)c([N+](=O)[O-])c1 [Iniparib] (top concentration tested 10000 nM) | 0 | 0 | 0 | 0
O=C(O)CSc1cc(NS(=O)(=O)c2ccc(Br)cc2)c2ccccc2c1O [UMI-77] (top concentration tested 100000 nM) | 13.1 | 10 | 5.12 | 5.23
O=NN(CCCl)C(=O)NCCCl [Carmustine] (top concentration tested 10000 nM) | 1.45 | 3.24 | 0 | 0
COc1cc(C(=O)NC2CCN(C)CC2)c(F)cc1Nc1ncc2c(n1)N(C1CCCC1)CC(F)(F)C(=O)N2C [TAK-960] (top concentration tested 2500 nM) | 0 | 0 | 0 | 0.89
COc1cc2c(cc1O)CC[C@@H]1[C@@H]2CC[C@]2(C)[C@@H](O)CC[C@@H]12 [2-methoxyestradiol] (top concentration tested 10000 nM) | 10.6 | 6.57 | 5.9 | 0
O=c1ncn2nc(Sc3ccc(F)cc3F)ccc2c1-c1c(Cl)cccc1Cl [VX 745] (top concentration tested 10000 nM) | 2.43 | 4.64 | 0 | 0
COc1cc([C@@H]2c3cc4c(cc3[C@@H](O[C@@H]3O[C@@H]5CO[C@@H](C)O[C@H]5[C@H](O)[C@H]3O)[C@H]3COC(=O)[C@H]23)OCO4)cc(OC)c1O [Etoposide] (top concentration tested 10000 nM) | 20 | 17.6 | 7.94 | 3.46
CCNC(=O)Nc1ccc(-c2nc3c(c(N4CCOC[C@@H]4C)n2)CCN(C2COC2)C3)cc1 [RG-7603] (top concentration tested 2500 nM) | 8.47 | 6.22 | 0 | 0
C=CC(=O)Nc1cc(Nc2nccc(-c3cn(C)c4ccccc34)n2)c(OC)cc1N(C)CCN(C)C [Osimertinib] (top concentration tested 2500 nM) | 8.88 | 6.46 | 6.55 | 0.47
CN(C)C[C@@H]1CCn2cc(c3ccccc32)C2=C(C(=O)NC2=O)c2cn(c3ccccc23)CCO1 [Ruboxistaurin] (top concentration tested 10000 nM) | 8.97 | 9 | 6.85 | 6.6
CC(C)(C#N)c1cc(Cn2cncn2)cc(C(C)(C)C#N)c1 [Anastrozole] (top concentration tested 10000 nM) | 0 | 0.01 | 0 | 0
CN(CC(=O)N(Cc1ccc(C2CCCCC2)cc1)c1ccc(C(=O)O)cc1)S(=O)(=O)c1c(F)c(F)c(F)c(F)c1F [SH-4-54] (top concentration tested 25000 nM) | 10.8 | 10.1 | 9.04 | 5.59
CC(C)Nc1cc(-c2c[nH]c(C(=O)N[C@H](CO)c3cccc(Cl)c3)c2)c(Cl)cn1 [Ulixertinib] (top concentration tested 10000 nM) | 3.95 | 4.62 | 0 | 0
C=CCc1cccc(/C=N/NC(=O)CN2CCN(Cc3ccccc3)CC2)c1O [PAC-1] (top concentration tested 10000 nM) | 7.56 | 4.7 | 3.52 | 0
COc1cc2ncnc(Oc3cccc(NC(=O)Nc4cc(C(C)(C)C(F)(F)F)on4)c3)c2cc1OC (top concentration tested 10000 nM) | 2.4 | 1.53 | 0 | 0.44
COc1cc2ncnc(Nc3ccc(F)c(Cl)c3)c2cc1NC(=O)/C=C/CN1CCCCC1 [Dacomitinib] (top concentration tested 1000 nM) | 5.47 | 1.76 | 0 | 0
